Six compounds from patent publication US6673800B2, “4,5,-dihydroisoxazolylakylpiperazine derivatives having selective biological activity at dopamine D3 or D4 receptor, and preparation thereof” (Korea Institute of Science and Technology, priority 2000, dated 2004) can be followed below.

Assay [1] addresses cloned human dopamine receptors D1 (Homo sapiens, UniProt P21728). Description: Binding affinity to dopamine receptor, radiolabeled ligand displacement (D1). On the set-up: dose or concentration left out as unconfirmed. The procedure:
(§1) Binding affinities of the compounds for dopamine receptors were determined indirectly by their ability to displace radiolabeled ligand from cloned human dopamine receptors. Compounds were incubated in receptor suspension to compete with the. radiolabeled ligand. The receptor-bound radiolabeled ligand was separated by filtering through Wallac glass fiber filtermat (GF/C) using Inotech cell harvester of 96-well format. The radioactivity bound to filter was counted by Micro-β counter (Wallac).
(§2) The aliquots of cloned human dopamine receptors stored at −70° C. were suspended in assay buffer and the content of receptor in each aliquot was determined by Bio-Rad DC protein assay kit to give an optimal protein (receptor) concentration obtained by preliminary receptor binding assay. Receptor suspension adjusted to optimal concentration was aliquoted in proper volume for assay and stored at −70° C. Binding assays of every compound were performed in duplicate and each different buffer solution was used for optimal assay with each subtype of dopamine receptors. Receptor binding assays were carried out in 96-well plates. Receptor suspension of 100 μl was incubated at 27° C. for 30-60 min in a final volume of 0.25 ml reaction mixture containing 50 μl of hot-ligand and 10 μl of test compound.
(§3) After incubation, the reaction mixture was washed with ice-cold 50 mM Tris-acetate buffer by rapid filtration using a Inotech cell harvester (Inotech, Switzerland) through Whatman GF/C glass fiber filter presoaked in the assay buffer. The filter was covered with MeltiLex, sealed in a sample bag followed by drying in the microwave, and counted by MicroBeta Plus(Wallac, Finland) at a counting efficiency of 30-40%.

Assay [2] addresses cloned human dopamine receptors D2 (Homo sapiens, UniProt P14416). Description: Binding affinity to dopamine receptor, radiolabeled ligand displacement (D2). Set-up: Affinity to Dopamine Receptors (% Inhibition) D2: dose or concentration left out as unconfirmed. The procedure: as §1, §2, §3
The target in assay [3] is T1, cloned human dopamine receptors D4 (Homo sapiens, UniProt P21917).
T1 sequence (P21917 1-419): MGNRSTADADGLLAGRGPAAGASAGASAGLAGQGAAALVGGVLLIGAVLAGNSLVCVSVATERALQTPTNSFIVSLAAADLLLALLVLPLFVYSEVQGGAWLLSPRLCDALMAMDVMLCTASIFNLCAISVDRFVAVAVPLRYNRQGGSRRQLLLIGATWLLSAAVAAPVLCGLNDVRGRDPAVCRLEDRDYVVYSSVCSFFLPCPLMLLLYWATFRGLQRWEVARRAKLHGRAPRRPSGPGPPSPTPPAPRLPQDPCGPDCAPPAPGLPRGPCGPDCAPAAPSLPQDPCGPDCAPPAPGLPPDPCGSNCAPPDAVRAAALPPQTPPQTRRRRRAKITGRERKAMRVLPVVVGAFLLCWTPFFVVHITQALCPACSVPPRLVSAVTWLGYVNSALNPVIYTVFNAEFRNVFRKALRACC
Kind of assay: Binding affinity to dopamine receptor, radiolabeled ligand displacement (D4). Set-up: Affinity to Dopamine Receptors (% Inhibition) D4: dose or concentration left out as unconfirmed. The procedure:
as §1, §2, §3

Assay [4] deals with cloned human dopamine receptors D3 (Homo sapiens, UniProt P35462). Kind of assay: Binding affinity to dopamine receptor, radiolabeled ligand displacement (D3). Set-up: Affinity to Dopamine Receptors (% Inhibition) D3: dose or concentration left out as unconfirmed. The procedure: as §1, §2, §3
cloned human dopamine receptors D3, sequence (P35462 whole entry): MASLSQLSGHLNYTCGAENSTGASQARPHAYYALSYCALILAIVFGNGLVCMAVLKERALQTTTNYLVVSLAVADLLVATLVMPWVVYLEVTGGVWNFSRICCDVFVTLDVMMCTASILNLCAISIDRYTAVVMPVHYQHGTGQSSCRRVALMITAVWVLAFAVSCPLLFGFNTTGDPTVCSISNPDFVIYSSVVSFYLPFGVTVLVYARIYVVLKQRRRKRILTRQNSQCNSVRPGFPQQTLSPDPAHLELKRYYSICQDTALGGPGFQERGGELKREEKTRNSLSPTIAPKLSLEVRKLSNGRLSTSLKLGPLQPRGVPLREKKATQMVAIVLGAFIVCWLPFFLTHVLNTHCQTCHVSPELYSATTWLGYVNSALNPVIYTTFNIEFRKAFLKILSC

cloned human dopamine receptors D1, sequence (P21728 whole entry): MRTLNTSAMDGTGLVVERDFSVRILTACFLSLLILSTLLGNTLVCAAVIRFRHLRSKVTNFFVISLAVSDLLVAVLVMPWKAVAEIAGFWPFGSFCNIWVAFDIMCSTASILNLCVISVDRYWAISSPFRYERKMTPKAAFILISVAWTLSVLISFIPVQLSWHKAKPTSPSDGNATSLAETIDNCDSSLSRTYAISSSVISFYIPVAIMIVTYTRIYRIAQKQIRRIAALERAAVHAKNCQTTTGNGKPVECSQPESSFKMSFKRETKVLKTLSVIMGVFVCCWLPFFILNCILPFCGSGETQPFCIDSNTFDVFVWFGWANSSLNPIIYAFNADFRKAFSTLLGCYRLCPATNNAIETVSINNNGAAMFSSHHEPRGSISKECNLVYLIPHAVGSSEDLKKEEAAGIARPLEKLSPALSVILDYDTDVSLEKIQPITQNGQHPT
cloned human dopamine receptors D2, sequence (P14416 whole entry): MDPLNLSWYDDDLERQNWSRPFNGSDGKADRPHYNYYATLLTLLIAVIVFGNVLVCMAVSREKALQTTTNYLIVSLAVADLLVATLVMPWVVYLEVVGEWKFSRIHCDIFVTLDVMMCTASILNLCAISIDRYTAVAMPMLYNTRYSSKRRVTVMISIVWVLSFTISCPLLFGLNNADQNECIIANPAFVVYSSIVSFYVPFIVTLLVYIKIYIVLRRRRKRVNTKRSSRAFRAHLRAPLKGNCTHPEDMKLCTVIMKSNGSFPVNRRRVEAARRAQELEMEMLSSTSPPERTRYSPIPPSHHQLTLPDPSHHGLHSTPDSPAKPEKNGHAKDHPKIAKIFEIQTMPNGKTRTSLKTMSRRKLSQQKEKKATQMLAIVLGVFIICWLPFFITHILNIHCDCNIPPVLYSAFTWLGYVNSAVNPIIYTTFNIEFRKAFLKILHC

By IC50 is commonly meant the concentration at which inhibition is half-maximal. On to `CCOc1ccccc1N1CCN(CCCC2CC(c3ccc(OC)c(OC)c3)=NO2)CC1` (racemic) [Compound No. 29], for which, in assay [1], the “Affinity to Dopamine Receptors (% Inhibition) D1” value (shortened to “Affinity … (% Inhibition) D1”) turned out to be 40.1%. For the same compound, in assay [2], the “Affinity to Dopamine Receptors (% Inhibition) D2” value (shortened to “Affinity … (% Inhibition) D2”) was determined as 83.5% and the concentration for half-maximal inhibition (IC50) stood at 110 nM. Further, in assay [3], the “Affinity to Dopamine Receptors (% Inhibition) D4” value (shortened to “Affinity … (% Inhibition) D4”) came to 57.4% and the half-inhibitory concentration (IC50) was 108 nM.

For `CCOc1ccccc1N1CCN(CCCC2CC(c3cccs3)=NO2)CC1` (racemic) [Compound No. 30], the “Affinity … (% Inhibition) D1” value in assay [1] was 57.8%. For the same compound, in assay [2], the “Affinity … (% Inhibition) D2” value is recorded as 88.2% and the IC50 was found to be 470 nM. In assay [4], the “Affinity to Dopamine Receptors (% Inhibition) D3” value (shortened to “Affinity … (% Inhibition) D3”) turned out to be 101.2% and the IC50 amounted to 4 nM. In assay [3], the “Affinity … (% Inhibition) D4” value came to 102.3% and the IC50 amounted to 11 nM.

Regarding `COc1ccccc1N1CCN(CCCCC2CC(c3ccccc3)=NO2)CC1` (racemic) [Compound No. 34], in assay [1], the “Affinity … (% Inhibition) D1” value worked out at 23.6%. The “Affinity … (% Inhibition) D2” value in assay [2] amounted to 58.3%. The “Affinity … (% Inhibition) D3” value in assay [4] is given as 83.8%. Also, the “Affinity … (% Inhibition) D4” value in assay [3] was determined as 100.1%.

As to `COc1ccc(C2=NOC(CCCN3CCN(c4ccccc4)CC3)C2)cc1OC` (stereo not shown) [Compound No. 7], the “Affinity … (% Inhibition) D1” value in assay [1] is listed as 9.0%. For the same compound, in assay [2], the “Affinity … (% Inhibition) D2” value is recorded as 49.0% and the IC50 was 9230 nM. Further, in assay [4], the “Affinity … (% Inhibition) D3” value worked out at 102.5% and the IC50 was found to be 21 nM. Besides, in assay [3], the “Affinity … (% Inhibition) D4” value stood at 103.9% and the IC50 was 71 nM.

As to `COc1ccc(C2=NOC(CCCN3CCN(c4ccccc4OC)CC3)C2)cc1OC` (stereo not shown) [Compound No. 9], the “Affinity … (% Inhibition) D1” value in assay [1] came out at 19.6%. In assay [2], the “Affinity … (% Inhibition) D2” value turned out to be 57.7% and the half-inhibitory concentration (IC50) worked out at 1440 nM. Also, in assay [4], the “Affinity … (% Inhibition) D3” value was determined as 101.2% and the IC50 is 5 nM. Moreover, in assay [3], the “Affinity … (% Inhibition) D4” value stood at 104.4% and the IC50 came out at 23 nM.

As for `COc1ccccc1N1CCN(CCCC2CC(c3cccs3)=NO2)CC1` (stereo not shown) [Compound No. 10], in assay [1], the “Affinity … (% Inhibition) D1” value was determined as 19.9%. For the same compound, in assay [2], the “Affinity … (% Inhibition) D2” value stood at 56.0% and the IC50 worked out at 1930 nM. For the same compound, in assay [4], the “Affinity … (% Inhibition) D3” value is given as 99.9% and the IC50 was found to be 19 nM. Moreover, in assay [3], the “Affinity … (% Inhibition) D4” value amounted to 103.6% and the IC50 worked out at 34 nM.
